In patent publication US20230346827A1 (priority 2020, published 2023):

Tested on: Human Schwann cells
Assay: Gene expression array and pathway analysis, Schwann cells, LMW-DS 0.01 mg/ml 48 h
Type: cell-based
Conditions: for number of genes: abolished nutrient effect / number of genes: total / number of genes: enhanced response to nutrients / number of genes: new effect induced by LMW-DS / number of genes: not different from control / Activation z-score / Predicted activation state relative D2 control: Schwann cells; for Activation z-score / Predicted activation state relative D2 control: D2 LMW-DS treatment
Experimental: For each cell line, n=8 × 25 cm^2 culture flasks were set up. Two flasks were harvested for each cell type on the day of treatment (24 hours after seeding). This represents the Day0 time point. From the remaining flasks, three flasks were treated with Control Medium and three were treated with Culture Medium (CM) containing LMW-DS to give a final concentration of 0.01 mg/ml. Cells from the treated flasks were collected after 48 hours. Therefore the collected data represent (a) untreated cells (Day0 Controls and Day2 Controls) and (b) cells treated with LMW-DS (ILB®, Tikomed AB, Viken, Sweden, WO 2016/076780) for 48 hours (Day2 LMW-DS treated).
Schwann cells growth medium was prepared by adding 10% of fetal bovine serum (FBS) to high-glucose DMEM and pre-warmed to 37° C. Cells were thawed in a 37° C. water bath for no longer than 2 min.
Cells from 12 vials were each gently transferred to a tube containing 10 ml of high-glucose DMEM medium and centrifuged at 400 relative centrifugal field (RCF) for 10 min. Pellet was re-suspended in culture medium. The cells from the 12 vials were mixed and distributed equally into the previously coated 25 cm^2 flasks (n=8). Cells were incubated at 37° C. with 5% CO2. Cells were allowed to settle for 24 hours before LMW-DS treatment.
LMW-DS was provided at a stock concentration of 20 mg/ml and was kept in a temperature monitored refrigerator at 4° C. A fresh 100x LMW-DS stock (1.0 mg/ml) was prepared in sterile DMEM-F12. The concentrated drug stock was sterile filtered and added to the respective culture media (19.6 ml CM and 0.4 ml LMW-DS stock solution). The Control was made using 19.6 ml CM and 0.4 ml of DMEM-F12. LMW-DS and CM were added to the respective flasks (5 ml each) to reach the 0.01 mg/ml concentration of LMW-DS in each dish with a total of 10 ml CM each.
CM was aspirated into a clean and labelled 15 ml Falcon tube. The flasks (without culture medium) were placed into the -80° C. freezer for 30 minutes. The CM in the Falcon tubes was spun at 3000 x g for 5 minutes. Supernatant was removed and the small pellet was re-suspended in 2.5 ml Trizol:Water (4:1) solution at room temperature (RT, ~22° C.).
Two aliquots of 1 ml lysate were removed from each sample and 200 µl of chloroform was added to each (0.2 ml of chloroform per 1 ml of TRIzol Reagent used during the cell lysis step) and the tube was shaken vigorously. Samples were stored at RT for 2-3 minutes and subsequently centrifuged at 12,000 x g for 15 minutes at 4° C.
The RNA was precipitated from the aqueous phase by adding an equal amount of 100% ethanol. The precipitated RNA was fixed onto a Spin Cartridge, washed twice and dried. The RNA was eluted in 50 µl warm RNase-Free Water. The amount and quality of the purified RNA was measured by Nanodrop. The RNA was stored at -80° C. before transfer to Source Bioscience for Array analysis.
The expression data were downloaded into separate files for each cell line. The ‘Background corrected’ expression is the data from the “gProcessedSignal” of the arrays that is the result of the background signal extracted from the actual signal of the relevant probe. This is the most often used variable in array analysis. The background corrected signal was log2 transformed for all samples for statistical analysis. To reduce the false discovery rate in the samples, the signals that were below ‘expression level’ were removed. The ‘below expression’ level was set at 5 for the log2 transformed expression values.
Based on the expression pattern of the Control probes on each array it was decided to carry out Median Centering for all arrays before analysis to reduce the variability of the results. […]

[1] = pathway analysis of gene expression
[2] = upstream regulator HGF (from line above)

Substance: sodium salt of dextran sulfate [LMW-DS]
- attachment-related molecules differentially expressed: 17
- number of differentially expressed genes (D0 control to D2 LMW-DS treated): 1244
- number of differentially expressed genes (D2 control to D2 LMW-DS treated): 700
- number of genes: abolished nutrient effect (no effect): 21
- number of genes: total (no effect): 21
- number of genes: abolished nutrient effect (significant downregulation): 1
- number of genes: enhanced response to nutrients (significant downregulation): 122
- number of genes: new effect induced by LMW-DS (significant downregulation): 352
- number of genes: not different from control (significant downregulation): 42
- number of genes: total (significant downregulation): 517
- number of genes: abolished nutrient effect (significant upregulation): 13
- number of genes: enhanced response to nutrients (significant upregulation): 441
- number of genes: new effect induced by LMW-DS (significant upregulation): 74
- number of genes: not different from control (significant upregulation): 373
- number of genes: total (significant upregulation): 901
- number of genes: abolished nutrient effect (total): 35
- number of genes: enhanced response to nutrients (total): 563
- number of genes: new effect induced by LMW-DS (total): 426
- number of genes: not different from control (total): 415
- number of genes: total (total): 1439
- TGFβ-induced effect in adhesion of immune cells, activation and aggregation of cells, fibrosis, self-activation of TGFβ (molecular network analysis): totally abolished
- Complex III (cytochrome bc1) [1]: inhibited
- activity and/or levels of glutamate transporters (SLC1A2/3) [1]: increased
- genes altered in Control cultures with no changes in LMW-DS treated cultures (two days): 21
- genes downregulated by growth factors, downregulation stronger with LMW-DS (two days): 122
- genes downregulated in control cultures, upregulated in LMW-DS treated cultures (two days): 13
- genes increased in control cultures, downregulated in LMW-DS treated cultures (two days): 1
- genes upregulated in Control cultures, upregulation stronger with LMW-DS (two days): 441
- Activation z-score (upstream regulator ANGPT2): 1.283
- Predicted activation state relative D2 control (upstream regulator ANGPT2): Activated
- Activation z-score (upstream regulator BMP2): 1.395
- Predicted activation state relative D2 control (upstream regulator BMP2): Activated
- Activation z-score (upstream regulator BMP4): 0.927
- Predicted activation state relative D2 control (upstream regulator BMP4): Activated
- Activation z-score (upstream regulator BMP7): 1.86
- Predicted activation state relative D2 control (upstream regulator BMP7): Activated
- Activation z-score (upstream regulator EGF): 2.059
- Predicted activation state relative D2 control (upstream regulator EGF): Activated
- Activation z-score (upstream regulator FGF2): 2.37
- Predicted activation state relative D2 control (upstream regulator FGF2): Activated
- Activation z-score (upstream regulator GDF2): 2.561
- Predicted activation state relative D2 control (upstream regulator GDF2): Activated
- Activation z-score [2]: 1.432
- Predicted activation state relative D2 control [2]: Activated
- Activation z-score (upstream regulator IGF1): 1.332
- Predicted activation state relative D2 control (upstream regulator IGF1): Activated
- Activation z-score (upstream regulator NRG1): 1.768
- Predicted activation state relative D2 control (upstream regulator NRG1): Activated
- Activation z-score (upstream regulator NRTN): 0.958
- Predicted activation state relative D2 control (upstream regulator NRTN): Activated
- Activation z-score (upstream regulator PGF): 0.254
- Predicted activation state relative D2 control (upstream regulator PGF): Activated
- Activation z-score (upstream regulator TGFβ1): 1.05
- Predicted activation state relative D2 control (upstream regulator TGFβ1): Less inhibited
- Activation z-score (upstream regulator VEGFA): 3.4
- Predicted activation state relative D2 control (upstream regulator VEGFA): Activated
- Activation z-score (upstream regulator WISP2): -0.896
- Predicted activation state relative D2 control (upstream regulator WISP2): Less inhibited
